These results are taken from ChEMBL document CHEMBL6177982, “Structural Optimization of Pyrazole Compounds as Hsp90 Regulators with Enhanced Antitumor Activity” (J Med Chem, 2025).

The source made the active and inactive calls. No cut-off for these calls is given here. Some results are limits rather than exact numbers.

The subject of data set [1] is HCT-116. Put plainly: Antiproliferative activity against human HCT-116 cells assessed as inhibition of cell proliferation incubated for 72 hrs by MTT assay. It counts as functional, cell-based. The following applies: HCT-116, 72 h.
The target in data set [2] is Heat shock protein HSP90 (Homo sapiens) (UniProt P07900+P08238). Put plainly: Induction of thermal stabilization of HSP90 in human HCT-116 cells at 10 uM at 53 to 55 degreeC by CETSA based Western blot analysis. It counts as cell-based.
Data set [3] has as its system HCT-116. Put plainly: Antiproliferative activity against CDC37 knockout human HCT-116 cells assessed as inhibition of cell proliferation incubated for 72 hrs by MTT assay. It counts as functional, cell-based. The following applies: for IC50: HCT-116, 72 h. For orientation: Formazan colour is commonly taken as a measure of viable cells.
For data set [4], the target named is Heat shock protein HSP 90-beta/Hsp90 co-chaperone Cdc37 (Homo sapiens) (UniProt P08238+Q16543). Put plainly: Inhibition of His-tagged HSP90(unknown origin)/GST-tagged CDC37 (unknown origin) protein-protein interaction at 100 uM preincubated with HSP90 for 1 hrs followed by CDC37 addition and measured after 1 hrs by HTRF assay relative to control. It counts as protein-complex assay. A general note: TR-FRET usually uses a lanthanide donor and a delayed reading to cut background.

The next data set has as its system SK-BR-3. Put plainly: Antiproliferative activity against human SK-BR-3 cells assessed as inhibition of cell proliferation incubated for 72 hrs by MTT assay. The following applies: SK-BR-3, 72 h. It counts as functional, cell-based.
A further data set deals with HT-29. Put plainly: Antiproliferative activity against human HT-29 cells assessed as inhibition of cell proliferation incubated for 72 hrs by MTT assay. It counts as functional, cell-based. Conditions: HT-29, 72 h.
Data set [5] can be described thus: Permeability of compound at pH 7.4 incubated for 4 hrs by PAMPA based UV analysis. Conditions: read-out: permeability. It counts as ADME. On the technique in general: PAMPA measures passive passage across an artificial lipid membrane.
Data set [6] in a line: Selectivity ratio of IC50 for antiproliferative activity against CDC37 knockout human HCT-116 cells to IC50 for antiproliferative activity against human HCT-116 cells. It counts as functional.
The next data set concerns MCF7. The experiment in a line: Antiproliferative activity against human MCF7 cells assessed as inhibition of cell proliferation incubated for 72 hrs by MTT assay. It counts as functional, cell-based. The following applies: MCF7, 72 h.
In a further data set the test system is HT-1080. Put plainly: Antiproliferative activity against human HT-1080 cells assessed as inhibition of cell proliferation incubated for 72 hrs by MTT assay. It counts as functional, cell-based. The following applies: HT-1080, 72 h.
For the next data set, the system named is CT26. Put plainly: Antiproliferative activity against mouse CT26 cells assessed as inhibition of cell proliferation incubated for 72 hrs by MTT assay. It counts as functional, cell-based. Conditions: CT26, 72 h.

In general, IC50 refers to the concentration needed to halve the response being measured. Regarding `O=S(=O)(CCc1cn(-c2ccccc2)nc1-c1cccnc1)c1ccccc1`, the IC50 in the data set with HCT-116 [1] and in the data set on HCT-116 [3] was over 50 µM throughout. In data set [2], the result was inactive.
The inhibition is the percentage by which the read-out fell short of the control. Read a high inhibition as strong suppression. In the case of `Cc1ccc(-c2nn(-c3ccccc3)cc2/C=C/C(=O)N2CCCCC2C(N)=O)cc1C` (stereo not given), the IC50 was found to be 7.83 µM in the data set on HCT-116 [1]; 13.9 µM in the data set with SK-BR-3; 10.2 µM with HT-29; 12.2 µM in the data set with MCF7; 14.8 µM with HT-1080; 25.1 µM in the data set on HCT-116 [3]. In the data set on CT26, the IC50 came to 9.24 µM. In addition, the inhibition in data set [4] came out at 62.9%. The Papp at 4 h in data set [5] turned out to be 23 ×10⁻⁶ cm/s. For the same compound, the “Ratio IC50” value in [6] is given as 3.2.
For `O=C(/C=C/c1cn(-c2ccccc2)nc1-c1cccnc1)N1CCCC1`, the IC50 in the data set on HCT-116 [1] is 8.48 µM; in the data set on HCT-116 [3] it was over 50 µM. Moreover, the inhibition in data set [4] was found to be 65.9%. The “Ratio IC50” value in data set [6] is recorded as over 5.
For `NC(=O)C1CCCCN1C(=O)/C=C/c1cn(-c2ccccc2)nc1-c1ccccn1` (stereo not given) the same measures were 7.11 µM, over 100 µM, 69.5% and over 10.
For `NC(=O)C1CCCCN1C(=O)/C=C/c1cn(-c2ccccc2)nc1-c1cccs1` (stereo not given), the IC50 with HCT-116 [1] was 8.46 µM; in the data set on HCT-116 [3], over 50 µM. In data set [4], this compound came in with an inhibition of 59%. Besides, the “Ratio IC50” value in data set [6] is recorded as over 5.
Take `O=C(/C=C/c1cn(-c2ccccc2)nc1-c1cccnc1)N1CCCCCC1`: the IC50 in the data set on HCT-116 [1] is 7.17 µM. For the same compound, the inhibition in data set [4] came to 72.5%. For the same compound, the “Ratio IC50” value in data set [6] was over 20. In addition, the outcome in the data set with HCT-116 [3] was inactive.
For `NC(=O)C1CCCCN1C(=O)/C=C/c1cn(-c2ccccc2)nc1-c1cccc(Br)c1` (stereo not given), the values for the IC50 in the data set with HCT-116 [1] and in the data set on HCT-116 [3] were 12.2 µM and 44.5 µM, respectively. Moreover, in [4], the inhibition was 50.2%. In data set [6], the “Ratio IC50” value is reported as 3.6.
For `NC(=O)C1CCCCN1C(=O)/C=C/c1cn(-c2ccccc2)nc1-c1cccc(F)c1` (stereo not given), in that order: 14.2 µM, 42.2 µM, 45.6% and 3.
For `NC(=O)C1CCCCN1C(=O)/C=C/c1cn(-c2ccccc2)nc1-c1ccco1` (stereo not given), in that order: 9.79 µM, over 50 µM, 55.4% and over 5.
For `Cc1ccccc1-c1nn(-c2ccccc2)cc1/C=C/C(=O)N1CCCCC1C(N)=O` (stereo not given), in that order: 10.2 µM, 27.5 µM, 45.4% and 2.7.
As to `COc1cccc(-c2nn(-c3ccccc3)cc2/C=C/C(=O)N2CCCCC2C(N)=O)c1` (stereo not given), the half-inhibitory concentration (IC50) in the data set with HCT-116 [1] is 10.3 µM; in the data set with HCT-116 [3], over 50 µM. In addition, the inhibition in data set [4] amounted to 67.8%. The “Ratio IC50” value in data set [6] is given as over 5.
For `NC(=O)C1CCCCN1C(=O)/C=C/c1cn(-c2ccccc2)nc1-c1cccnc1Br` (stereo not given) the same measures were 11.8 µM, over 50 µM, 42.9% and under 5.
As to `CCCN(C)C(=O)/C=C/c1cn(-c2ccccc2)nc1-c1cccnc1`, the IC50 in the data set on HCT-116 [1] is 9.26 µM; in the data set with HCT-116 [3], 48.1 µM. Also, the inhibition in data set [4] was found to be 59.8%. Besides, the “Ratio IC50” value in data set [6] is 5.2.
For `NC(=O)C1CCCCN1C(=O)/C=C/c1cn(-c2ccccc2)nc1-c1cncc(Br)c1` (stereo not given) the same measures were 9.18 µM, over 100 µM, 72.5% and over 10.
For `COc1cc(-c2nn(-c3ccccc3)cc2/C=C/C(=O)N2CCCCC2C(N)=O)ccc1Cl` (stereo not given), in that order: 11 µM, over 50 µM, 43.3% and under 5.
For `COc1cc(-c2nn(-c3ccccc3)cc2/C=C/C(=O)N2CCCCC2C(N)=O)ccc1Br` (stereo not given) the same measures were 10.1 µM, 44.7 µM, 49.2% and 4.4.
For the compound `NC(=O)C1CCCCN1C(=O)/C=C/c1cn(-c2ccccc2)nc1-c1cccnc1` (stereo not given), the IC50 in the data set on HCT-116 [1] is 6.12 µM; with HCT-116 [3], over 100 µM. Moreover, the inhibition in data set [4] stood at 74.4%. For the same compound, the “Ratio IC50” value in data set [6] is listed as over 10.
For `O=C(/C=C/c1cn(-c2ccccc2)nc1-c1cccnc1)N1CCCCC1`, in that order: 8.11 µM, over 50 µM, 68.8% and over 5.
For `NC(=O)C1CCCCN1C(=O)/C=C/c1cn(-c2ccccc2)nc1-c1cccc(N)c1` (stereo not given), in that order: 9.11 µM, over 50 µM, 68.3% and over 5.
For `Cc1ccc(-c2nn(-c3ccccc3)cc2/C=C/C(=O)N2CCCCC2C(N)=O)cc1` (stereo not given) the same measures were 10.9 µM, 30.8 µM, 44.7% and 2.8.
Take `COc1ncccc1-c1nn(-c2ccccc2)cc1/C=C/C(=O)N1CCCCC1C(N)=O` (stereo not given): the IC50 is 12.5 µM in the data set with HCT-116 [1] and over 50 µM in the data set on HCT-116 [3]. In data set [4], this compound displayed an inhibition of 45.7%. Also, the “Ratio IC50” value in data set [6] is under 5.
For `NC(=O)C1CCCCN1C(=O)/C=C/c1cn(-c2ccccc2)nc1-c1ccc(Cl)cc1` (stereo not given) the same measures were 11.8 µM, 32.3 µM, 45.4% and 2.7.
For `Cc1cccc(S(=O)(=O)/C=C/c2cn(-c3ccccc3)nc2-c2cccnc2)c1`, in that order: 4.23 µM, over 50 µM, 83.2% and over 10.
For `O=S(=O)(/C=C/c1cn(-c2ccccc2)nc1-c1cccnc1)c1ccc(Cl)cc1`, in that order: 1.28 µM, over 50 µM, 89.2% and over 50.
Consider `Cc1cc(-c2nn(-c3ccccc3)cc2/C=C/C(=O)N2CCCCC2C(N)=O)ccc1Cl` (stereo not given), for which the IC50 in the data set on HCT-116 [1] turned out to be 10.6 µM; in the data set on HCT-116 [3], 42.7 µM. For the same compound, the inhibition in data set [4] is 46.9%. For the same compound, the “Ratio IC50” value in data set [6] was determined as 4.
